# How the values were obtained:
# GPR55 = settings: ref [55]; cited from earlier work
# Protocol: GPR55 involvement in osteoclast functions was directly assessed using in-vitro assays of bone resorbing activity. As the transient silencing by GPR55-specific siRNAs in precursor cells was not applicable to this long-term differentiation assay, pharmacological perturbation of GPR55 was carried out with only the most specific antagonists (ML-191, CID16020046) and LPI. RAW264.7 cells were plated on cortical bone slices and RANKL-differentiated for 7 days in the absence or presence of the different GPR55 regulators. At the end of the differentiation, the cells were detached and the resorbing area ...
# RAW264.7 cells = assay: RANKL-induced transcription of osteoclastogenesis markers in RAW264.7 cells (real-time PCR); format: cell-based, murine; settings: RANKL 15 ng/mL, 72 h, 1 µM soybean LPI
# How it was run: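 RAW264.7 cells in α-MEM/10% FBS were treated with 15–30 ng/mL RANKL, refreshed every 48 h, with or without GPR55 ligands (e.g. 0.5 µM ML-191, 30 µM O1918, 1 µM LPI) or 150 nM peptide-P1. Marker mRNA was quantified by SYBR Green real-time PCR normalised to β2-microglobulin; Gpr55 was knocked down by siRNA where applied.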
# [1] = test system: osteoclasts derived from RAW264.7 cells; assay: Osteoclast functional assay (bone resorption on bovine cortical bone slices); format: cell-based, murine; settings: 0.5 µM CID16020046, 15 ng/mL RANKL, 7 days
# Protocol: RAW264.7 cells were plated in differentiation medium at a density of 1250 cells/100 µL on 0.2-mm-thick bovine cortical bone slices (BoneSlices.com, Jelling, Denmark) in 96-well plates. Six hours later, 100 µL differentiation medium with RANKL (15 ng/mL, final concentration) was added, in the presence of a carrier or in combination with the GPR55 modulators. The media with the different compounds were replaced every 48 h, for a total of 7 days. At the end of this period, the cells were detached with a 10% bleach solution, and the resorption excavations were visualised by using Toluidine Blue staining (Sigma-Aldrich). Images of the resorption areas were obtained under the microscope (SW380T; Swift Optical Instruments, Inc., TX, USA) using the 10 × objective, and acquired with a digital camera (Swiftcam SC1003; Swift Optical Instruments, Inc.). The total eroded surface underwent blinded quantification using ImageJ (NIH), and was subdivided into pit and trench surfaces. Pits were characterised as round excavations with well-defined edges where the ratio between length and width was < 2.0. Trenches were defined as elongated excavations with well-defined edges whose length was at least twice the wide, and with clear signs of continued resorption. The prevalence of trenches was calculated as a proportion (%) of the trench surface relative to the total eroded surface.
smiles,measurement,setting,value
Cc1ccc(-c2n[nH]c3c2C(c2cccc(O)c2)N(c2ccc(C(=O)O)cc2)C3=O)cc1 (centres unmarked) [CID16020046],mode of action on GPR55,GPR55,GPR55 inverse agonist
same,reduction of LPI-stimulated Ctr transcription,RAW264.7 cells; 0.5 µM CID16020046,50%
same,block of LPI-stimulated Nfatc1 transcription,RAW264.7 cells; 0.5 µM ML-191 or 0.5 µM CID16020046,completely blocked
same,inhibition of RANKL-promoted osteoclast degrading activity,[1],only slightly inhibited
same,reduction of relative trench contribution compared to RANKL,[1]; p < 0.05,about 30%
